Laboratory results as given in PMC11672292, “Discovery of Balasubramide Derivative with Tissue‐Specific Anti‐Inflammatory Activity Against Acute Lung Injury by Targeting VDAC1” (Advanced Science, 2024).

What was measured:
[1] = tested on: LPS-stimulated RAW264.7 cells; assay: LPS-induced TNF-α release in RAW264.7 macrophages (ELISA); type: cell-based, mouse; conditions: for IC50: read-out: IC50, inhibition of LPS-induced TNF-α release
Procedure: The anti‐inflammatory effects of all (+)‐balasubramide derivatives were evaluated in Lipopolysaccharide (LPS, L2630, Sigma–Aldrich, USA)‐induced macrophage inflammation model. RAW264.7 cells were pretreated with various compounds or (+)3C‐20 at different concentrations for 3 h, and then stimulated with LPS (100 ng mL^−1) for 2 h for the detection of pro‐inflammatory factors expressions. Similarly, following 3 h co‐incubation with (+)3C‐20, mouse BMDMs were stimulated with LPS (100 ng mL^−1) for 3 h. TNF‐α protein in the culture medium supernatant was measured by a commercial ELISA kit (#1 217 202, DAKEWE, China) following the manufacture's protocols.

RAW264.7 cells = assay: CCK-8 cell viability assay; type: cell-based, mouse; conditions: 10 μM, 24 h
Procedure: Cell viability was determined by CCK‐8 assay. RAW264.7 cells or mouse BMDMs cultured in a 96‐well plate were pretreated with various compounds at 10 µM or different concentrations of (+)3C‐20 for 24 h when cells reached 70% confluence and then were treated with DMEM containing 5 µL CCK‐8 reagent (A311, Vazyme, China) in a humidified atmosphere of 5% CO2 and 95% air for 1 h at 37 °C. The UV absorption values of the medium with CCK‐8 were measured at 450 nm in a ThermoFisher plate‐reader (VL0L0TD2, Waltham, USA).

mice = assay: Acute toxicity (LD50, sequential method), single intravenous injection; conditions: for Mortality: i.v.
Description: To test the safety of (+)3C‐20 in mice, as previously reported,^[ [31] ^] we estimated the acute toxicity of (+)3C‐20 in mice using a sequential method.

Row | Structure (SMILES) | effect on the release of TNF-α ([1]; LPS-induced RAW 264.7 macrophage inflammation model) | inhibition at 10 µM ([1]; Mus musculus, 10 μM + LPS (100 ng/mL), RAW264.7 cells, n = 3, read-out: Inhibition rate (%) of TNF-α release) | cell viability (RAW264.7 cells) | IC50 ([1]; RAW264.7 cells) | Mortality (mice; dosage 60.00 mg/kg) | Mortality (mice; dosage 71.14 mg/kg) | Mortality (mice; dosage 84.34 mg/kg) | Mortality (mice; dosage 100.00 mg/kg) | LD50 (mice; single intravenous injection)
1 | CN1CCc2c([nH]c3ccccc23)C(c2ccccc2)C(O)C1=O (single isomer, unassigned; (+)) [(+)3J] | a certain inhibitory effect | 19.1 ± 1.83% | 95.09 ± 1.19 |  |  |  |  |  | 
2 | O=C(O)CNC(=O)C1(Nc2ccccc2)CCN(Cc2cccc3ccccc23)CC1 [VBIT-12, reference compound] |  |  |  | 83.1 µM |  |  |  |  | 
3 | O=C(CC(CO)N1CCN(c2ccc(OC(F)(F)F)cc2)CC1)Nc1ccc(Cl)cc1 (stereo not shown) [VBIT-4] |  |  |  | 19.8 µM | 0 | 14.286 | 83.333 | 100 | 75.828 mg/kg
